From the NIST ThermoML archive (doi:10.1016/j.fluid.2018.01.025)

Tests used:
[1] = 101.33 kPa, Liquid; for speed of sound: Frequency=2 MHz, Linear variable-path acoustic interferometer; for mass density: Vibrating tube method
[2] = xn = mol fraction of the nth substance listed; details: 101 kPa, Liquid; for speed of sound: Frequency=2 MHz, Linear variable-path acoustic interferometer; for mass density: Vibrating tube method

Nc1ccccc1Cl [2-chlorobenzeneamine]
[1]
Details	mass density [kg/m3]	speed of sound [m/s]
303.15 K	1202.38	1468
308.15 K	1197.56	–
313.15 K	1192.97	1437
318.15 K	1187.92	–
323.15 K	1183.26	–

Nc1ccccc1Cl [2-chlorobenzeneamine] + OCc1ccccc1
[2]
Details	mass density, 303.15 K [kg/m3]	mass density, 308.15 K [kg/m3]	mass density, 313.15 K [kg/m3]	mass density, 318.15 K [kg/m3]	mass density, 323.15 K [kg/m3]	speed of sound, 303.15 K [m/s]	speed of sound, 313.15 K [m/s]
x2 = 0.1018	1188.36	1183.05	1178.05	1172.74	1167.93	1470.9	1440.8
x2 = 0.2031	1173.95	1168.26	1162.88	1157.37	1152.55	1474.4	1445.4
x2 = 0.3041	1158.94	1153	1147.35	1141.76	1136.87	1478	1450.2
x2 = 0.4047	1143.31	1137.27	1131.48	1125.89	1121.03	1482.1	1455
x2 = 0.5049	1126.98	1121.04	1115.21	1109.7	1104.91	1486.4	1459.9
x2 = 0.6047	1110.07	1104.31	1098.62	1093.31	1088.6	1490.9	1464.9
x2 = 0.7041	1092.58	1087.09	1081.73	1076.67	1072.12	1495.6	1470.1
x2 = 0.8031	1074.51	1069.49	1064.51	1059.84	1055.47	1500.6	1475.4
x2 = 0.9017	1056	1051.53	1047	1042.77	1038.7	1506	1481

Nc1cccc(Cl)c1 [3-chlorobenzenamine]
[1]
Details	mass density [kg/m3]	speed of sound [m/s]
303.15 K	1205.75	1516
308.15 K	1201.14	–
313.15 K	1196.56	1484
318.15 K	1191.98	–
323.15 K	1187.41	–

Nc1cccc(Cl)c1 [3-chlorobenzenamine] + OCc1ccccc1
[2]
Details	mass density, 303.15 K [kg/m3]	mass density, 308.15 K [kg/m3]	mass density, 313.15 K [kg/m3]	mass density, 318.15 K [kg/m3]	mass density, 323.15 K [kg/m3]	speed of sound, 303.15 K [m/s]	speed of sound, 313.15 K [m/s]
x2 = 0.1021	1189.69	1184.95	1180.24	1175.53	1170.9	1515.4	1484.3
x2 = 0.2037	1173.42	1168.65	1163.79	1159.09	1154.36	1514.9	1484.6
x2 = 0.3048	1156.94	1152.15	1147.27	1142.57	1137.82	1514.5	1484.9
x2 = 0.4055	1140.31	1135.57	1130.63	1125.95	1121.26	1514.1	1485.2
x2 = 0.5057	1123.48	1118.82	1113.94	1109.34	1104.71	1513.7	1485.5
x2 = 0.6054	1106.48	1101.95	1097.12	1092.63	1088.14	1513.3	1485.8
x2 = 0.7048	1089.33	1084.96	1080.3	1075.88	1071.54	1512.9	1486.1
x2 = 0.8036	1072.05	1067.86	1063.4	1059.13	1054.96	1512.6	1486.4
x2 = 0.902	1054.66	1050.79	1046.44	1042.37	1038.37	1512.3	1486.7

CN(C)c1ccccc1 [N,N-dimethylaniline]
[1]
Details	mass density [kg/m3]	speed of sound [m/s]
303.15 K	948.18	1470
308.15 K	943.55	–
313.15 K	939.78	1432
318.15 K	935.3	–
323.15 K	931.45	–

CN(C)c1ccccc1 [N,N-dimethylaniline] + OCc1ccccc1
[2]
Details	mass density, 303.15 K [kg/m3]	mass density, 308.15 K [kg/m3]	mass density, 313.15 K [kg/m3]	mass density, 318.15 K [kg/m3]	mass density, 323.15 K [kg/m3]	speed of sound, 303.15 K [m/s]	speed of sound, 313.15 K [m/s]
x2 = 0.12	957.18	952.61	948.78	944.35	940.48	1475.2	1438
x2 = 0.2348	966.14	961.64	957.75	953.35	949.47	1480.2	1443.8
x2 = 0.3447	974.99	970.58	966.64	962.3	958.43	1484.8	1449.3
x2 = 0.4501	983.81	979.48	975.5	971.22	967.35	1489.2	1454.8
x2 = 0.5511	992.59	988.35	984.36	980.15	976.28	1493.5	1460.3
x2 = 0.6481	1001.4	997.24	993.26	989.1	985.25	1497.6	1465.7
x2 = 0.7412	1010.24	1006.19	1002.16	998.09	994.24	1501.5	1471.1
x2 = 0.8308	1019.15	1015.2	1011.16	1007.16	1003.34	1505.1	1476.4
x2 = 0.917	1028.12	1024.28	1020.19	1016.31	1012.49	1508.5	1481.7

CNc1ccccc1 [N-methylaniline]
[1]
Details	mass density [kg/m3]	speed of sound [m/s]
303.15 K	981.72	1549
308.15 K	976.04	–
313.15 K	970.89	1511
318.15 K	965.81	–
323.15 K	961.13	–

CNc1ccccc1 [N-methylaniline] + OCc1ccccc1
[2]
Details	mass density, 303.15 K [kg/m3]	mass density, 308.15 K [kg/m3]	mass density, 313.15 K [kg/m3]	mass density, 318.15 K [kg/m3]	mass density, 323.15 K [kg/m3]	speed of sound, 303.15 K [m/s]	speed of sound, 313.15 K [m/s]
x2 = 0.1044	987.67	980.39	976.87	971.88	967.24	1545	1507.9
x2 = 0.2078	993.53	986.48	982.82	977.93	973.34	1540.9	1505.2
x2 = 0.3102	999.29	992.49	988.73	983.96	979.41	1537.1	1502.6
x2 = 0.4116	1004.92	998.45	994.6	989.97	985.5	1533.3	1500.1
x2 = 0.512	1010.45	1004.34	1000.43	995.91	991.54	1529.6	1497.7
x2 = 0.6115	1015.9	1010.22	1006.25	1001.87	997.59	1526.1	1495.3
x2 = 0.71	1021.26	1016.06	1012.02	1007.8	1003.64	1522.5	1493
x2 = 0.8076	1026.57	1021.85	1017.82	1013.73	1009.68	1518.8	1490.8
x2 = 0.9042	1031.88	1027.64	1023.58	1019.63	1015.72	1515.3	1488.7

Nc1ccccc1 [aniline]
[1]
Details	mass density [kg/m3]	speed of sound [m/s]
303.15 K	1012.78	1615
308.15 K	1008.64	–
313.15 K	1004.49	1578
318.15 K	1000.36	–
323.15 K	996.43	–

Nc1ccccc1 [aniline] + OCc1ccccc1
[2]
Details	mass density, 303.15 K [kg/m3]	mass density, 308.15 K [kg/m3]	mass density, 313.15 K [kg/m3]	mass density, 318.15 K [kg/m3]	mass density, 323.15 K [kg/m3]	speed of sound, 303.15 K [m/s]	speed of sound, 313.15 K [m/s]
x2 = 0.0895	1015.86	1011.46	1007.17	1003.04	999.07	1605.7	1570.1
x2 = 0.181	1018.68	1014.15	1009.79	1005.68	1001.68	1596.1	1561.9
x2 = 0.2748	1021.37	1016.76	1012.36	1008.28	1004.27	1586.4	1553.5
x2 = 0.3709	1023.88	1019.29	1014.9	1010.83	1006.82	1576.5	1544.9
x2 = 0.4693	1026.28	1021.76	1017.36	1013.33	1009.35	1566.6	1536
x2 = 0.5701	1028.61	1024.17	1019.82	1015.83	1011.87	1556.3	1526.9
x2 = 0.6735	1030.85	1026.55	1022.24	1018.31	1014.35	1545.9	1517.5
x2 = 0.7796	1033.02	1028.88	1024.64	1020.74	1016.84	1535.2	1507.8
x2 = 0.8884	1035.14	1031.18	1027.03	1023.15	1019.33	1523.9	1497.7

OCc1ccccc1 [benzenemethanol]
[1]
Details	mass density [kg/m3]	speed of sound [m/s]
303.15 K	1037.18	1512
308.15 K	1033.45	–
313.15 K	1029.36	1487
318.15 K	1025.57	–
323.15 K	1021.78	–
